l = locked nucleic acid (LNA); d = 2'-deoxy (DNA)
Experiments:
[1] = test system: AMO1 cells; assay: Combination with proteasome inhibitors or melphalan, 7-AAD cell viability, combination index; assay type: cell-based, Human; conditions: for CI value of combination with Bortezomib / CI value of combination with Carfilzomib / CI value of combination with Melphalan: AMO1, 6 days
Method: Bortezomib (PS-341, catalog n° S1013) and Carfilzomib (PR-171, catalog n°S2853) were purchased from Selleck. Combination between miR-17-92 LNA gapmer_06 and proteasome inhibitors was tested in AMO1 cells. 1×10^3 cells were plating in 96-well plates. Bortezomib was used at concentrations ranging from 2 nM to 3.5 nM. Carfilzomib was used at concentrations ranging from 0.4 to 0.7 nM. Measurement of synergistic index (SI) was determined with the following formula: SI=(effect induced by miR-17-92 LNA gapmers and proteasome inhibitors in combination)/effect of miR-17-92 LNA gapmers) +(effect of proteasome inhibitors). Interactions were considered synergistic when the SI was >1.
Melphalan was purchased from Sigma Aldrich (catalog n°M2011). Combination between miR-17-92 LNA gapmer_06 and melphalan was tested in AMO1 cells. Cell number at plating was 1×10^3 in 96-well plates. Melphalan was used at concentrations ranging from 0.5 μM to 2 μM. Measurement of synergistic index (SI) was determined with the following formula: SI=(effect induced by miR-17-92 LNA gapmers and melphalan in combination)/(effect of miR-17-92 LNA gapmers)+(effect of melphalan). Interactions were considered synergistic when the SI was >1.
7-aminoactinomycin was used to evaluate cell viability. The staining was performed according to manufacturer's instructions.
AMO1 cells were exposed for 6 days to LNA gapmers_06 or each of Bortezomib, Carfilzomib, Melphalan or to combinations of LNA gapmer_06 and each of these drugs.
Cells viability was calculated by flow cytometric analysis of 7-AAD staining and the percentage of living cell was compared to the untreated cells.
In Tables 3-5 tests with the respective combinations performed simultaneously are reported. The effect of LNA gapmer_06 was determined separately for Bortezomib, Carfilzomib, and Melphalan explaining the slightly different values. CI (combination index) values are shown (CI<1 synergism, CI=1 additive, […]). For each monotherapy different doses and combinations were tested. Combination index were calculated using the CalcuSyn software.

[2] = test system: PTEN, AKT, ERK, E2F-1, p14/ARF-p53 and intrinsic apoptotic pathway proteins in NCI-H929 cells; assay: Western blot analysis of molecular perturbations after gymnotic exposure; assay type: cell-based, Human
Method: SDS-PAGE and Western Blotting (WB) were performed according to standard protocols. Briefly, cells were lysed by lysis buffer containing 15mM Tris/HCl pH 7.5, 120mM NaCl, 25mM KCI, 1mM EDTA, 0.5% Triton 100, Halt Protease Inhibitor Single-Use cocktail (100X, Thermo Scientific). Whole cells lysates (50 μg per lane) were separated using 4-12% Novex Bis-Tris SDS-acrylamide gels (Invitrogen), electro-transferred on Nitrocellulose membranes (Bio-Rad), and immunoblotted with the antibodies. Membranes were washed 3 times in PBS-Tween and then incubated with a secondary antibody conjugated with horseradish peroxidase in 0.5% milk for 2 hours at room temperature. Chemiluminescence was detected using Western Blotting Luminol Reagent (sc-2048, Santa Cruz, Dallas, Tex., USA). Signal intensity was quantified with the Quantity One Analyzing System (Bio-Rad).
MiRNAs are a class of non coding RNAs that regulate gene expression at post-transcriptional levels. Each miRNA may regulate the expression of several (hundreds) genes. Since LNA/DNA gapmers inhibit the biogenisis of the six members of the miR-17-92 cluster, a wide perturbation in the expression of target genes is predictable. Therefore, we gymnotically exposed NCI-H929 cells for 6 days to gapmer_06 or scrambled controls and, by western blotting, we analyzed molecular perturbations at protein levels.

[3] = test system: AMO1 xenografts; assay: In vivo tumor growth of AMO1 xenografts (IVIS); set-up: species or system mice; conditions: I.P. 2 mg/kg at day 1-4-8-15-22
Description: Male CB-17 severe combined immunodeficient (SCID) mice (6- to 8-weeks old; Harlan Laboratories, Inc., Indianapolis) were housed and monitored in our Animal Research Facility. All experimental procedures and protocols had been approved by the Institutional Ethical Committee (Magna Graecia University) and conducted according to protocols approved by the National Directorate of Veterinary Services (Italy). In accordance with institutional guidelines, mice were sacrificed when tumors reached 2 cm in diameter or in the event of paralysis or major compromise, to prevent unnecessary suffering. Animal experimental procedures have been performed as in previous reports (Di Martino et al, CCR 2012; Di Martino el al. Oncotarget 2013, Di Martino et al PlosOne 2014). […] Mice were also inoculated with 5×10^6 luciferase gene-marked U266, AMO-1, AMO-1/abzb, treatments were performed intraperitoneally (i.p.), and tumor volume were measured by IVIS Lumina II.
In vivo anti-MM activity of LNA gapmer_06 was next evaluated in NOD/SCID mice bearing subcutaneous AMO1 xenografts. […] Tumors volume were measured using IVIS LUMINA II Imaging We next evaluate the in vivo activity in Bortezomib-refractory model of human MM. […] Tumors volume were measured using IVIS LUMINA II Imaging System.

[4] = NCI-H929, 6 days gymnotic exposure, 2,5 μM

Question: Which “interaction with Bortezomib to induce cell death” value ([1]; AMO1 cells, 6 days, combination with Bortezomib) does the source give for “gapmer_06: LNA/DNA gapmer, SEQ ID 4 (14 mer): +T*+A*+C*T*T*G*C*T*T*G*G*+C*+T*+T; + LNA, * phosphorothioate (antisense TACTTGCTTGGCTT; sugars from the 5' end l3 d8 l3, all phosphorothioate, methylation of C not given here)” here?
Answer: synergizes

Question: And the “interaction with Carfilzomib to induce cell death” value ([1]; AMO1 cells, 6 days, combination with Carfilzomib)?
Answer: synergizes

Question: What about the “interaction with Melphalan to induce cell death” value ([1]; AMO1 cells, 6 days, combination with Melphalan) of the same substance?
Answer: synergizes

Question: And the “CI value of combination with Bortezomib” value ([1]; Bortezomib 0.0035 μm + miR-17-92 LNA gapmer 0.5 μl)?
Answer: 0.759

Question: And the “CI value of combination with Bortezomib” value ([1]; Bortezomib 0.0035 μm + miR-17-92 LNA gapmer 0.75 μl)?
Answer: 0.418

Question: And the “CI value of combination with Bortezomib” value ([1]; Bortezomib 0.0035 μm + miR-17-92 LNA gapmer 1 μl)?
Answer: 0.342

Question: And the “CI value of combination with Bortezomib” value ([1]; Bortezomib 0.0035 μm + miR-17-92 LNA gapmer 1.25 μl)?
Answer: 0.036

Question: And the “CI value of combination with Carfilzomib” value ([1]; Carfilzomib 0.0004 μm + miR-17-92 LNA gapmer 1.25 μl)?
Answer: 0.89

Question: What about the “CI value of combination with Carfilzomib” value ([1]; Carfilzomib 0.0005 μm + miR-17-92 LNA gapmer 1.25 μl) of the same substance?
Answer: 0.55

Question: And the “CI value of combination with Carfilzomib” value ([1]; Carfilzomib 0.0006 μm + miR-17-92 LNA gapmer 1.25 μl)?
Answer: 0.50

Question: And the “CI value of combination with Carfilzomib” value ([1]; Carfilzomib 0.0007 μm + miR-17-92 LNA gapmer 1.25 μl)?
Answer: 0.39

Question: And the “CI value of combination with Melphalan” value ([1]; Melphala 1.5 μm + miR-17-92 LNA gapmer 0.5 μl)?
Answer: 0.78

Question: What about the “CI value of combination with Melphalan” value ([1]; Melphala 1.5 μm + miR-17-92 LNA gapmer 0.75 μl) of the same substance?
Answer: 0.99

Question: What about the “CI value of combination with Melphalan” value ([1]; Melphala 1.5 μm + miR-17-92 LNA gapmer 1 μl) of the same substance?
Answer: 0.65

Question: And the “CI value of combination with Melphalan” value ([1]; Melphala 1.5 μm + miR-17-92 LNA gapmer 1.25 μl)?
Answer: 0.56

Question: What about the “CI value of combination with Melphalan” value ([1]; Melphala 1.75 μm + miR-17-92 LNA gapmer 0.5 μl) of the same substance?
Answer: 0.66

Question: And the “CI value of combination with Melphalan” value ([1]; Melphala 1.75 μm + miR-17-92 LNA gapmer 0.75 μl)?
Answer: 0.89

Question: What about the “CI value of combination with Melphalan” value ([1]; Melphala 1.75 μm + miR-17-92 LNA gapmer 1 μl) of the same substance?
Answer: 0.56

Question: And the “CI value of combination with Melphalan” value ([1]; Melphala 1.75 μm + miR-17-92 LNA gapmer 1.25 μl)?
Answer: 0.47

Question: What about the “CI value of combination with Melphalan” value ([1]; Melphala 2 μm + miR-17-92 LNA gapmer 0.5 μl) of the same substance?
Answer: 0.51

Question: And the “CI value of combination with Melphalan” value ([1]; Melphala 2 μm + miR-17-92 LNA gapmer 0.75 μl)?
Answer: 0.59

Question: And the “CI value of combination with Melphalan” value ([1]; Melphala 2 μm + miR-17-92 LNA gapmer 1 μl)?
Answer: 0.46

Question: And the “CI value of combination with Melphalan” value ([1]; Melphala 2 μm + miR-17-92 LNA gapmer 1.25 μl)?
Answer: 0.26

Question: And the “E2F-1 protein level (Western Blot)” value [2, 4]?
Answer: strongly up-regulated

Question: And the “anti-apoptotic proteins Bcl-2, Mcl-1 (Western Blot)” value [2, 4]?
Answer: down-regulation of anti-apoptotic proteins

Question: What about the “caspase-3 cleavage (Western Blot)” value [2, 4] of the same substance?
Answer: caspase-3 cleavege

Question: What about the “p-AKT and p-ERK (phosphorylated/active forms, Western Blot)” value [2, 4] of the same substance?
Answer: reduction of the phopshorylated / active forms

Question: And the “pro-apoptotic proteins Puma, Bak, Bax, Bid and Bim (Western Blot)” value [2, 4]?
Answer: up-regulation of pro-apototic proteins

Question: What about the “PTEN protein level (Western Blot)” value ([2]; NCI-H929, 6 days gymnotic exposure, 2,5 μM, vs scrambled controls) of the same substance?
Answer: strong up-regulation

Question: And the “p14/ARF-p53 fail-safe axis (Western Blot)” value ([2]; p53-wild-type NCI-H929, 6 days gymnotic exposure, 2,5 μM)?
Answer: triggers the p14/ARF-p53 fail-safe axis

Question: What about the “tumor-growth inhibition relative to Bortezomib 1 mg/kg” value [3] of the same substance?
Answer: almost comparable to Bortezomib effect

Question: And the “tumor growth (IVIS tumor volume)” value ([3]; vs NaCl control)?
Answer: significant tumor-growth inhibition

From patent US20180051284A1, “INHIBITORS OF MIR-17-92 CLUSTER FOR ANTI-TUMOR ACTIVITY IN MULTIPLE MYELOMA AND OTHER MALIGNANCIES” (priority 2014, published 2018)
